The source of these data is patent US10479784B2, “Substituted pyrazin-2-amines as inhibitors of ATR kinase” (Vertex Pharmaceuticals Incorporated, priority 2008, dated 2019).

The test has as its target full-length ATR (Homo sapiens (Human), UniProt Q13535). In words: ATR Inhibition Assay (radioactive-phosphate incorporation). It is filed as biochemical. As to conditions: read-out: ATR Ki. The procedure, abridged:
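Full-length human ATR (5 nM) was assayed at 25 °C in 50 mM Tris/HCl pH 7.5, 10 mM MgCl2, 1 mM DTT, with 10 μM [γ-33P]ATP and 800 μM peptide, after 10-min compound preincubation. Reactions were stopped after 24 h, captured on phosphocellulose and counted; Ki(app) came from non-linear regression of initial rates.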

Sequence of full-length ATR (Q13535 whole entry): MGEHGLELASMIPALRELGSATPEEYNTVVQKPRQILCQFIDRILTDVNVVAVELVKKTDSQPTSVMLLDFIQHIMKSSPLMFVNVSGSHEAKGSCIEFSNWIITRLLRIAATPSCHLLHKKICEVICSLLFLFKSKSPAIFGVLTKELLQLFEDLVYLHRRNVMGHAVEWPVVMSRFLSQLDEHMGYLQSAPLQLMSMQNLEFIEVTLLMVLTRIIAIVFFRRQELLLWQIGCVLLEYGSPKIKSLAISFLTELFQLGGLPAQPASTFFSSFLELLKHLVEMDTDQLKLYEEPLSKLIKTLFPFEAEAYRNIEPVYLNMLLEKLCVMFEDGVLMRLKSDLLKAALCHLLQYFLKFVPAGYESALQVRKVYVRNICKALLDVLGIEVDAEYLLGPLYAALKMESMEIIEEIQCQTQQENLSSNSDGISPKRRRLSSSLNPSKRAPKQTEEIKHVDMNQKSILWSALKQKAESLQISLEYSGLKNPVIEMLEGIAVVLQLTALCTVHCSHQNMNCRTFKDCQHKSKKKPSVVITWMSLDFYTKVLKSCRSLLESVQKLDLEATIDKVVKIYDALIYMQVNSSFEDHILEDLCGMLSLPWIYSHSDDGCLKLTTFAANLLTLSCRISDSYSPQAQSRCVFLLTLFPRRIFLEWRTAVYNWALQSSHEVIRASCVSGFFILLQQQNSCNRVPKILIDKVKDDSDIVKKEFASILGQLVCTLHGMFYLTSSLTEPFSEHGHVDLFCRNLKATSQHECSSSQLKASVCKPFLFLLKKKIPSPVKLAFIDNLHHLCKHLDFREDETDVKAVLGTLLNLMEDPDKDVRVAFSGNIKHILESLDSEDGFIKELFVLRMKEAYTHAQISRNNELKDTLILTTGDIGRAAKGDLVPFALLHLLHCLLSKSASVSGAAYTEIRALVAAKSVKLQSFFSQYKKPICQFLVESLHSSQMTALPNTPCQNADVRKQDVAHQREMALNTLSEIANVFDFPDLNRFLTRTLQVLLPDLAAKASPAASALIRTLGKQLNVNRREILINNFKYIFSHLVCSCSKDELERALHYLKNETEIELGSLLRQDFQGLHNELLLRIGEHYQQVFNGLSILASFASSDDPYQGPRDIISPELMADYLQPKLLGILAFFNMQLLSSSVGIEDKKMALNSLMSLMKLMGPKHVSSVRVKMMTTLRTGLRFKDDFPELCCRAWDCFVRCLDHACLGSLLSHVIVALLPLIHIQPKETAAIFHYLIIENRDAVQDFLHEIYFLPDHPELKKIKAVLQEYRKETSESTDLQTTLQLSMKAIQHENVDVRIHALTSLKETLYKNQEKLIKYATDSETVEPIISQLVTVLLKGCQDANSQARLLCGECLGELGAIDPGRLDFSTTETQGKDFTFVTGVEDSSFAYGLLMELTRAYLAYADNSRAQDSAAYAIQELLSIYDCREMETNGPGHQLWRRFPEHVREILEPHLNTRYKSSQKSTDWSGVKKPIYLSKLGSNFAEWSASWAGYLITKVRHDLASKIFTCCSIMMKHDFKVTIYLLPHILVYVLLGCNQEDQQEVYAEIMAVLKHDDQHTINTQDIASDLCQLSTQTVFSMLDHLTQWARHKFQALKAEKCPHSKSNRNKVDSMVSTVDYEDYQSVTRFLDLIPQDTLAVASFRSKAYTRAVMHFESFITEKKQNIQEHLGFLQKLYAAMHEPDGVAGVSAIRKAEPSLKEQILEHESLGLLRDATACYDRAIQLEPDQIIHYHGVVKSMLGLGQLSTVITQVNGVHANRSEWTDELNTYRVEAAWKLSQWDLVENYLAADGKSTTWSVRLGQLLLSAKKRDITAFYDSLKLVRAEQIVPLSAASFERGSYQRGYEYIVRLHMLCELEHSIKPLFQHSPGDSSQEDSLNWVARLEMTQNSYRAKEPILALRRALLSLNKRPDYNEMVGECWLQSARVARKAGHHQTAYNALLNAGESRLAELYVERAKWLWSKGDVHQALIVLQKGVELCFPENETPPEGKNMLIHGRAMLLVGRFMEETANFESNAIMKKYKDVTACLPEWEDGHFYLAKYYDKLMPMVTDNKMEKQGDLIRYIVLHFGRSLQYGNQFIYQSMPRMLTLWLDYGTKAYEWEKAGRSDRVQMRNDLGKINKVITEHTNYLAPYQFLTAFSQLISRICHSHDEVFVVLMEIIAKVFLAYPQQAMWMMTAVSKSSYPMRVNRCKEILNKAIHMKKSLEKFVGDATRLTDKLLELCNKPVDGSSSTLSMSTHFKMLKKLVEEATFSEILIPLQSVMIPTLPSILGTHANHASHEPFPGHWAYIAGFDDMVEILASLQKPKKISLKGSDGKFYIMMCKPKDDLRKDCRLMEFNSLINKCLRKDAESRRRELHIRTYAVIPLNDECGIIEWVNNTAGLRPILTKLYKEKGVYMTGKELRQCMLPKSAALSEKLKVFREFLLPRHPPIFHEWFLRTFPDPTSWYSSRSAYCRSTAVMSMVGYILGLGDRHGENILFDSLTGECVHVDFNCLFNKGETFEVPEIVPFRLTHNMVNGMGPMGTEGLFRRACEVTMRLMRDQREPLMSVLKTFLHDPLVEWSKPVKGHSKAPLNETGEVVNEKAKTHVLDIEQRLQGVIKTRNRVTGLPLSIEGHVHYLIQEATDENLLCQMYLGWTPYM

Take `CS(=O)(=O)c1ccc(-c2cnc(N)c(-c3nc4ccc(C(F)(F)F)cc4[nH]3)n2)cc1` [Compound I-118, 5-(4-(methylsulfonyl)phenyl)-3-(6-(trifluoromethyl)-1H-benzo[d]imidazol-2-yl)pyrazin-2-amine]: the inhibition constant Ki is no more than 10 nM.

On to `Nc1ncc(-c2ccccc2O)nc1-c1nnc(-c2ccccc2)o1` [IA-61], for which the Ki is 10 to 100 nM.

Consider `CC(C)S(=O)(=O)c1ccc(-c2cnc(N)c(-c3nnc(-c4cccc(C#N)c4)o3)n2)cc1` [IA-187, 3-[5-[3-amino-6-(4-isopropylsulfonylphenyl)pyrazin-2-yl]-1,3,4-oxadiazol-2-yl]benzonitrile], for which the inhibitory constant (Ki) lay within 10 to 100 nM.

`CS(=O)(=O)c1ccc(-c2cnc(N)c(C(=O)Nc3n[nH]c4ccccc34)n2)cc1` [Compound V-13]: the Ki lay in the range of 100 to 5000 nM.

In the case of `CN(C)C(=O)c1ccc(-c2cnc(N)c(-c3nnc(-c4ccc(F)cc4)o3)n2)cc1` [IA-36], the inhibition constant Ki lay in the range of 10 to 100 nM.

Turning to `CC(C)S(=O)(=O)c1ccc(-c2cnc(N)c(-c3nnc(CCNC(=O)OC(C)(C)C)o3)n2)cc1` [IA-251, tert-butyl N-[2-[5-[3-amino-6-(4-isopropylsulfonylphenyl)pyrazin-2-yl]-1,3,4-oxadiazol-2-yl]ethyl]carbamate], the inhibitory constant (Ki) was in the range of 100 to 5000 nM.

With `CC(=O)Nc1cccc(-c2cnc(N)c(-c3nnc(-c4ccccc4)o3)n2)c1` [IA-66], the Ki lay within 10 to 100 nM.

With `Nc1ncc(-c2ccnc(N3CCNCC3)c2)nc1-c1nnc(-c2ccccc2)o1` [IA-271, 3-(5-phenyl-1,3,4-oxadiazol-2-yl)-5-(2-piperazin-1-yl-4-pyridyl)pyrazin-2-amine], the Ki lay within 100 to 5000 nM.

Consider `CN(C)CCN(C)C(=O)c1cccc(-c2cnc(N)c(C(=O)Nc3ccccc3)n2)c1` [Compound I-52, 3-amino-6-(3-((2-(dimethylamino)ethyl)(methyl)carbamoyl)phenyl)-N-phenylpyrazine-2-carboxamide], for which the Ki was 100 to 5000 nM.

Consider `CNCc1ccc(-c2nnc(-c3nc(-c4ccc(S(=O)(=O)C(C)CCO)cc4)cnc3N)o2)c(F)c1` (centres unmarked) [IA-342, 3-[4-[5-amino-6-[5-[2-fluoro-4-(methylaminomethyl)phenyl]-1,3,4-oxadiazol-2-yl]pyrazin-2-yl]phenyl]sulfonylbutan-1-ol], for which the Ki is no more than 10 nM.

Take `Nc1ncc(-c2ccccc2C(F)(F)F)nc1C(=O)Nc1ccccc1` [Compound I-6, 3-amino-N-phenyl-6-(2-(trifluoromethyl)phenyl)pyrazine-2-carboxamide]: the inhibitory constant (Ki) fell in the range of 100 to 5000 nM.

`CS(=O)(=O)c1ccc(-c2cnc(N)c(-c3nc4ccccc4[nH]3)n2)cc1` [Compound I-123, 3-(1H-benzo[d]imidazol-2-yl)-5-(4-(methylsulfonyl)phenyl)pyrazin-2-amine]: the Ki was 10 to 100 nM.

In the case of `CC(C)S(=O)(=O)c1ccc(-c2cnc(N)c(-c3nnc(-c4ccc(CNC5CCOC5)cc4F)o3)n2)cc1` (centres unmarked) [IA-345, 3-[5-[2-fluoro-4-[(tetrahydrofuran-3-ylamino)methyl]phenyl]-1,3,4-oxadiazol-2-yl]-5-(4-isopropylsulfonylphenyl)pyrazin-2-amine], the Ki was no more than 10 nM.

Regarding `CN(C)[C@@H]1CCN(C(=O)c2ccc(-c3cnc(N)c(-c4nnc(-c5ccccc5)o4)n3)cc2)C1` [IA-10], the Ki is no more than 10 nM.

For `CN(C)C(=O)c1ccc(-c2cnc(N)c(-c3nnc(-c4cccc(CNC(=O)OC(C)(C)C)c4)o3)n2)cc1` [IA-73, tert-butyl N-[[3-[5-[3-amino-6-[4-(dimethylcarbamoyl)phenyl]pyrazin-2-yl]-1,3,4-oxadiazol-2-yl]phenyl]methyl]carbamate], the inhibition constant (Ki) is no more than 10 nM.

With `CC(=O)Nc1nnc(-c2nc(-c3ccc(C(=O)N(C)C)cc3)cnc2N)o1` [IA-278, 4-[6-(5-acetamido-1,3,4-oxadiazol-2-yl)-5-amino-pyrazin-2-yl]-N,N-dimethyl-benzamide], the Ki fell in the range of 100 to 5000 nM.

With `Nc1ncc(-c2ccnc(N3CCNCC3)c2)nc1-c1nc2ccccc2[nH]1` [Compound I-136, 3-(1H-benzo[d]imidazol-2-yl)-5-(2-(piperazin-1-yl)pyridin-4-yl)pyrazin-2-amine], the inhibition constant (Ki) was 100 to 5000 nM.

Consider `COc1ccc(-c2cnc(N)c(-c3nnc(-c4ccccc4)o3)n2)cn1` [IA-117, 5-(6-methoxy-3-pyridyl)-3-(5-phenyl-1,3,4-oxadiazol-2-yl)pyrazin-2-amine], for which the Ki was in the range of 100 to 5000 nM.

With `CNC(=N)c1ccc(-c2nnc(-c3nc(-c4ccc(S(=O)(=O)C(C)C)cc4)cnc3N)o2)cc1` [IA-208, 4-[5-[3-amino-6-(4-isopropylsulfonylphenyl)pyrazin-2-yl]-1,3,4-oxadiazol-2-yl]-N-methyl-benzamidine], the Ki was no more than 10 nM.

With `CN(C)C(=O)c1ccc(-c2cnc(N)c(-c3nnc(-c4ccco4)o3)n2)cc1` [IA-115, 4-[5-amino-6-[5-(2-furyl)-1,3,4-oxadiazol-2-yl]pyrazin-2-yl]-N,N-dimethyl-benzamide], the inhibition constant (Ki) lay in the range of 10 to 100 nM.

Consider `Nc1ncc(-c2ccc(N3CCOCC3)cc2)nc1C(=O)Nc1ccccc1` [Compound I-13, 3-amino-6-(4-morpholinophenyl)-N-phenylpyrazine-2-carboxamide], for which the Ki was in the range of 100 to 5000 nM.

For the molecule `Nc1ncc(-c2ccoc2)nc1-c1nnc(-c2ccccc2)o1` [IA-170, 5-(3-furyl)-3-(5-phenyl-1,3,4-oxadiazol-2-yl)pyrazin-2-amine], the inhibition constant Ki was in the range of 10 to 100 nM.

In the case of `CN(C)C(=O)c1ccc(-c2cnc(N)c(-c3nnc(-c4cccn4C)o3)n2)cc1` [IA-135, 4-[5-amino-6-[5-(1-methylpyrrol-2-yl)-1,3,4-oxadiazol-2-yl]pyrazin-2-yl]-N,N-dimethyl-benzamide], the inhibitory constant (Ki) was no more than 10 nM.

On to `CN(C)C(=O)c1ccc(-c2cnc(N)c(-c3nnc(-c4ccccc4C(F)(F)F)o3)n2)cc1` [IA-233, 4-[5-amino-6-[5-[2-(trifluoromethyl)phenyl]-1,3,4-oxadiazol-2-yl]pyrazin-2-yl]-N,N-dimethyl-benzamide], for which the Ki was in the range of 10 to 100 nM.

As for `CS(=O)(=O)Nc1cccc(-c2cnc(N)c(C(=O)Nc3ccccc3)n2)c1` [Compound I-25, 3-amino-6-(3-(methylsulfonamido)phenyl)-N-phenylpyrazine-2-carboxamide], the Ki was 10 to 100 nM.

`Cc1ccc2nc(-c3nc(-c4ccc(C(=O)N5CCCNCC5)cc4)cnc3N)[nH]c2c1` [Compound I-153, (4-(5-amino-6-(6-methyl-1H-benzo[d]imidazol-2-yl)pyrazin-2-yl)phenyl) (1,4-diazepan-1-yl)methanone]: the inhibition constant (Ki) fell in the range of 10 to 100 nM.

For the molecule `NCC[S+]([O-])c1ccccc1-c1cnc(N)c(-c2nnc(-c3ccccc3)o2)n1` (centres unmarked) [IA-261, 5-(2-(2-aminoethylsulfinyl)phenyl)-3-(5-phenyl-1,3,4-oxadiazol-2-yl)pyrazin-2-amine], the Ki was in the range of 10 to 100 nM.

Take `CN(C)Cc1ccccc1-c1cnc(N)c(-c2nnc(-c3ccccc3)o2)n1` [IA-118, 5-(2-((dimethylamino)methyl)phenyl)-3-(5-phenyl-1,3,4-oxadiazol-2-yl)pyrazin-2-amine]: the Ki lay within 100 to 5000 nM.

With `CN1CCN(C(=O)c2ccc(-c3cnc(N)c(-c4nnc(-c5ccccc5)o4)n3)cc2)CC1` [IA-9], the Ki is no more than 10 nM.

In the case of `Nc1ncc(-c2ccc(C(=O)N3CCCNCC3)cc2)nc1C(=O)Nc1ccc2c(c1)NNC2` [Compound V-28], the inhibition constant Ki is 10 to 100 nM.

In the case of `CN(C)C(=O)c1ccc(-c2cnc(N)c(-c3nnc(-c4ccsc4)o3)n2)cc1` [IA-262, 4-[5-amino-6-[5-(3-thienyl)-1,3,4-oxadiazol-2-yl]pyrazin-2-yl]-N,N-dimethyl-benzamide], the inhibitory constant (Ki) is no more than 10 nM.

Turning to `CNCc1ccc(-c2nnc(-c3nc(-c4ccc(S(=O)(=O)C(C)C)cc4)cnc3N)o2)c(C)c1` [IA-166, 5-(4-isopropylsulfonylphenyl)-3-[5-[2-methyl-4-(methylaminomethyl)phenyl]-1,3,4-oxadiazol-2-yl]pyrazin-2-amine], the Ki was no more than 10 nM.

`Nc1ncc(-c2ccccc2CO)nc1-c1nc2ccccc2[nH]1` [Compound I-127, (2-(5-amino-6-(1H-benzo[d]imidazol-2-yl)pyrazin-2-yl)phenyl)methanol]: the Ki was in the range of 100 to 5000 nM.

Consider `CN(C)C(=O)c1ccc(-c2cnc(N)c(-c3nnc(-c4ccc(O)cc4)o3)n2)cc1` [IA-87, 4-[5-amino-6-[5-(4-hydroxyphenyl)-1,3,4-oxadiazol-2-yl]pyrazin-2-yl]-N,N-dimethyl-benzamide], for which the Ki is no more than 10 nM.

As to `COc1ccc(C)cc1NC(=O)c1nc(-c2cccnc2)cnc1N` [Compound I-108, 3-amino-N-(2-methoxy-5-methylphenyl)-6-(pyridin-3-yl)pyrazine-2-carboxamide], the Ki was no more than 10 nM.

In the case of `NC(=O)c1cccc(NC(=O)c2nc(-c3cccnc3)cnc2N)c1` [Compound I-88, 3-amino-N-(3-carbamoylphenyl)-6-(pyridin-3-yl)pyrazine-2-carboxamide], the Ki was 100 to 5000 nM.

Consider `Cc1ccc2nc(-c3nc(-c4ccc(C(=O)N5CCCN(C)CC5)cc4)cnc3N)[nH]c2c1` [III-5, (4-(5-amino-6-(6-methyl-1H-benzo[d]imidazol-2-yl)pyrazin-2-yl)phenyl)(4-methyl-1,4-diazepan-1-yl)methanone], for which the Ki lay in the range of 10 to 100 nM.

Regarding `C#Cc1nnc(-c2nc(-c3ccc(S(=O)(=O)C(C)C)cc3)cnc2N)o1` [IA-258, 3-(5-ethynyl-1,3,4-oxadiazol-2-yl)-5-(4-isopropylsulfonylphenyl)pyrazin-2-amine], the inhibition constant Ki was no more than 10 nM.

`Nc1ncc(-c2ccccc2CCO)nc1-c1nnc(-c2ccccc2)o1` [IA-137, 2-[2-[5-amino-6-(5-phenyl-1,3,4-oxadiazol-2-yl)pyrazin-2-yl]phenyl]ethanol]: the inhibitory constant (Ki) lay within 10 to 100 nM.

For `CS(=O)(=O)c1ccc(-c2cnc(N)c(C(=O)Nc3ncns3)n2)cc1` [VII-7], the Ki lay within 10 to 100 nM.

`Nc1ncc(-c2cccc(C(=O)N3CCC(O)C3)c2)nc1C(=O)Nc1ccccc1` (centres unmarked) [Compound I-65, 3-amino-6-(3-(3-hydroxypyrrolidine-1-carbonyl)phenyl)-N-phenylpyrazine-2-carboxamide]: the Ki was in the range of 100 to 5000 nM.

Broadly, the Ki is a measure of affinity in units of concentration, obtained from inhibition or displacement.
